In ChEMBL document CHEMBL1201862, “PubChem BioAssay data set” (2004):
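The compound was tested at five concentrations on cells cultured in 96-well plates, with a 48-hour exposure period. Here, GI50 denotes the concentration required for 50% inhibition of growth.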 The source made the active and inactive calls. Cut-off read from the data, not from the text of the source: active = GI50 up to about 1.1 µM and inactive = higher. Bridge positions count the residues as written; N and C are the ends. Square brackets hold non-standard residues; d marks the D form. Peptide text beside a SMILES is read from it. I, II: the chains in the order shown. * marks the point of attachment. Quinoxaline2carbonyl = O=C(c1cnc2ccccc2n1)*; NMeV = CN[CH](C(=O)O)C(C)C; NMeC = CN[CH](CS)C(=O)O

Legend:
Test in all cases: DTP human tumour cell line panel, 48 h
SN12C = test system: SN12C
HL-60 = test system: HL-60
K562 = test system: K562
SNB-19 = test system: SNB-19
M14 = test system: M14
SK-OV-3 = test system: SK-OV-3
T47D = test system: T47D
OVCAR-8 = test system: OVCAR-8
EKVX = test system: EKVX
MDA-MB-231 = test system: MDA-MB-231
SK-MEL-28 = test system: SK-MEL-28
IGROV-1 = test system: IGROV-1
SF-268 = test system: SF-268
LOX IMVI = test system: LOX IMVI
KM12 = test system: KM12
KM-20L2 = test system: KM-20L2
SNB-78 = test system: SNB-78
DMS-114 = test system: DMS-114

Compound	GI50 (SN12C)	GI50 (HL-60)	GI50 (K562)	GI50 (SNB-19)	GI50 (M14)	GI50 (SK-OV-3)	GI50 (T47D)	GI50 (OVCAR-8)	GI50 (EKVX)	GI50 (MDA-MB-231)	GI50 (SK-MEL-28)	GI50 (IGROV-1)	GI50 (SF-268)	GI50 (LOX IMVI)	GI50 (KM12)	GI50 (KM-20L2)	GI50 (SNB-78)	GI50 (DMS-114)
CC(=C(C(N)=O)C(N)=O)C1C=C(c2cccs2)CC(c2ccc(Cl)cc2)=C1O (stereo unspecified)	32 µM (inactive)	9.59 µM (inactive)	25 µM (inactive)	77.8 µM (inactive)	42.5 µM (inactive)	> 100 µM (inactive)	9.84 µM (inactive)	73.6 µM (inactive)	> 100 µM (inactive)	> 100 µM (inactive)	> 100 µM (inactive)	35 µM (inactive)	> 100 µM (inactive)	19.8 µM (inactive)	34.7 µM (inactive)	–	–	–
COc1ccc(CC2Cc3ccccc3CCN2)cc1OC (stereo unspecified)	> 50 µM (inactive)	13.2 µM (inactive)	20 µM (inactive)	> 50 µM (inactive)	16.2 µM (inactive)	> 50 µM (inactive)	46.5 µM (inactive)	> 50 µM (inactive)	26.2 µM (inactive)	44.5 µM (inactive)	19.3 µM (inactive)	23.9 µM (inactive)	> 50 µM (inactive)	38.5 µM (inactive)	> 50 µM (inactive)	–	–	–
COCCOCCOC1=C(Cl)C(=O)c2c(O)ccc(O)c2C1=O	1.89 µM (inactive)	0.207 µM (active)	1.21 µM (inactive)	13.5 µM (inactive)	1.59 µM (inactive)	19 µM (inactive)	2.54 µM (inactive)	2.21 µM (inactive)	8.57 µM (inactive)	2.01 µM (inactive)	2.33 µM (inactive)	2.62 µM (inactive)	2.59 µM (inactive)	1.95 µM (inactive)	12.8 µM (inactive)	–	–	–
COc1ccc(C(=O)Oc2c(C#N)sc3c2c(=O)n(-c2ccccc2)c(=S)n3-c2ccccc2)cc1	23.5 µM (inactive)	22.2 µM (inactive)	30.3 µM (inactive)	33.2 µM (inactive)	20.3 µM (inactive)	33.9 µM (inactive)	33.6 µM (inactive)	24.7 µM (inactive)	12.9 µM (inactive)	31.3 µM (inactive)	53.6 µM (inactive)	19.6 µM (inactive)	34.2 µM (inactive)	19.5 µM (inactive)	18.5 µM (inactive)	–	–	–
CC1NC(=O)C(NC(=O)c2cnc3ccccc3n2)COC(=O)C(C(C)C)N(C)C(=O)C2CSSCC(C(=O)N(C)C(C(C)C)C(=O)OCC(NC(=O)c3cnc4ccccc4n3)C(=O)NC(C)C(=O)N2C)N(C)C1=O (stereo unspecified) (I: Quinoxaline2carbonyl-SA[NMeC][NMeV] / II: Quinoxaline2carbonyl-SA[NMeC][NMeV]; ester I:1-II:C, I:C-II:1; disulfide I:3-II:3; configuration not given here)	< 0.01 µM (active)	< 0.01 µM (active)	< 0.01 µM (active)	< 0.01 µM (active)	< 0.01 µM (active)	< 0.01 µM (active)	< 0.01 µM (active)	< 0.01 µM (active)	< 0.01 µM (active)	< 0.01 µM (active)	< 0.01 µM (active)	< 0.01 µM (active)	< 0.01 µM (active)	< 0.01 µM (active)	< 0.01 µM (active)	–	–	–
O=C1C(S(=O)(=O)c2ccccc2)=C(CS(=O)(=O)c2ccccc2)[C@@H](OCc2ccccc2)[C@@H]1OCc1ccccc1	22.3 µM (inactive)	17.1 µM (inactive)	14.4 µM (inactive)	34.3 µM (inactive)	15.7 µM (inactive)	41.5 µM (inactive)	32.7 µM (inactive)	18.5 µM (inactive)	27.2 µM (inactive)	23.9 µM (inactive)	18.1 µM (inactive)	17.1 µM (inactive)	29.9 µM (inactive)	15.8 µM (inactive)	0.0519 µM (active)	–	–	–
NC(=O)C(=O)c1ncn(Cc2ccccc2)c1N	> 100 µM (inactive)	> 100 µM (inactive)	> 100 µM (inactive)	> 100 µM (inactive)	> 100 µM (inactive)	> 100 µM (inactive)	> 100 µM (inactive)	> 100 µM (inactive)	> 100 µM (inactive)	> 100 µM (inactive)	> 100 µM (inactive)	> 100 µM (inactive)	> 100 µM (inactive)	89.5 µM (inactive)	> 100 µM (inactive)	–	–	–
COC(=O)Nc1nc2ccc(S(=O)(=O)SC)cc2[nH]1	10.9 µM (inactive)	2.38 µM (inactive)	4.86 µM (inactive)	7.55 µM (inactive)	3.4 µM (inactive)	8.39 µM (inactive)	9.55 µM (inactive)	5.13 µM (inactive)	8.69 µM (inactive)	11.6 µM (inactive)	8.28 µM (inactive)	3.37 µM (inactive)	16.5 µM (inactive)	4.78 µM (inactive)	5.45 µM (inactive)	–	–	–
NC(=O)Cc1nc2c(N)ncnc2n1C1OC(CO)C(O)C1O (stereo unspecified)	> 100 µM (inactive)	> 100 µM (inactive)	> 100 µM (inactive)	> 100 µM (inactive)	> 100 µM (inactive)	> 100 µM (inactive)	> 100 µM (inactive)	> 100 µM (inactive)	> 100 µM (inactive)	> 100 µM (inactive)	> 100 µM (inactive)	> 100 µM (inactive)	> 100 µM (inactive)	> 100 µM (inactive)	> 100 µM (inactive)	–	–	–
COC(=O)CCc1ccc2c(c1)[C@H](C(=O)OC)[C@@H](c1ccc(O)cc1)O2	> 100 µM (inactive)	90.2 µM (inactive)	61.1 µM (inactive)	> 100 µM (inactive)	> 100 µM (inactive)	> 100 µM (inactive)	78.2 µM (inactive)	> 100 µM (inactive)	> 100 µM (inactive)	> 100 µM (inactive)	> 100 µM (inactive)	> 100 µM (inactive)	> 100 µM (inactive)	> 100 µM (inactive)	> 100 µM (inactive)	–	–	–
ClC1CCC2OOC1O2 (stereo unspecified)	> 100 µM (inactive)	32.2 µM (inactive)	> 100 µM (inactive)	> 100 µM (inactive)	> 100 µM (inactive)	> 100 µM (inactive)	–	> 100 µM (inactive)	> 100 µM (inactive)	–	> 100 µM (inactive)	> 100 µM (inactive)	> 100 µM (inactive)	> 100 µM (inactive)	> 100 µM (inactive)	> 100 µM (inactive)	> 100 µM (inactive)	43.7 µM (inactive)
COCCOCCOCCOc1ccc(C(C#N)N(CCc2ccccc2)C(=O)c2cc(C(=O)N(CCc3ccccc3)C(C#N)c3ccc(OCCOCCOCCOC)cc3)cc(C(=O)N(CCc3ccccc3)C(C#N)c3ccc(OCCOCCOCCOC)cc3)c2)cc1 (stereo unspecified)	> 100 µM (inactive)	> 100 µM (inactive)	> 100 µM (inactive)	> 100 µM (inactive)	> 100 µM (inactive)	> 100 µM (inactive)	> 100 µM (inactive)	> 100 µM (inactive)	> 100 µM (inactive)	> 100 µM (inactive)	> 100 µM (inactive)	> 100 µM (inactive)	> 100 µM (inactive)	> 100 µM (inactive)	> 100 µM (inactive)	–	–	–
CC(C)(C)OC(=O)N1CCCC1C(=O)NC(c1ccccc1)c1ccccc1 (stereo unspecified)	> 100 µM (inactive)	> 100 µM (inactive)	> 100 µM (inactive)	> 100 µM (inactive)	> 100 µM (inactive)	> 100 µM (inactive)	> 100 µM (inactive)	> 100 µM (inactive)	> 100 µM (inactive)	> 100 µM (inactive)	> 100 µM (inactive)	> 100 µM (inactive)	> 100 µM (inactive)	> 100 µM (inactive)	> 100 µM (inactive)	–	–	–
CC1CCCN1CCCOC(=O)c1ccc(OC2C=CCCC2)cc1 (stereo unspecified)	39.4 µM (inactive)	17.4 µM (inactive)	18.9 µM (inactive)	38.2 µM (inactive)	16.2 µM (inactive)	56.1 µM (inactive)	13.5 µM (inactive)	47.6 µM (inactive)	51.4 µM (inactive)	18.1 µM (inactive)	54.7 µM (inactive)	21.4 µM (inactive)	37.8 µM (inactive)	19.7 µM (inactive)	38.2 µM (inactive)	–	–	–
NC(Cc1cccc([N+](=O)[O-])c1)C(=O)O (stereo unspecified)	> 100 µM (inactive)	> 100 µM (inactive)	> 100 µM (inactive)	> 100 µM (inactive)	> 100 µM (inactive)	> 100 µM (inactive)	> 100 µM (inactive)	> 100 µM (inactive)	> 100 µM (inactive)	> 100 µM (inactive)	> 100 µM (inactive)	> 100 µM (inactive)	> 100 µM (inactive)	> 100 µM (inactive)	> 100 µM (inactive)	–	–	–
CCN1CCN(c2nc3ccccc3nc2C(=O)c2ccc(OC)c(OC)c2)CC1	42.1 µM (inactive)	44.1 µM (inactive)	12.6 µM (inactive)	24 µM (inactive)	16.2 µM (inactive)	12.1 µM (inactive)	> 100 µM (inactive)	12.6 µM (inactive)	19 µM (inactive)	14.8 µM (inactive)	13.5 µM (inactive)	16.6 µM (inactive)	19.3 µM (inactive)	12.7 µM (inactive)	15.4 µM (inactive)	–	–	–
CC1(C)OCC(C2OC3OC(C)(C)OC3C2c2ccccc2)O1 (stereo unspecified)	26.7 µM (inactive)	18.3 µM (inactive)	30.2 µM (inactive)	71.8 µM (inactive)	33.7 µM (inactive)	> 100 µM (inactive)	38.2 µM (inactive)	43 µM (inactive)	49 µM (inactive)	55 µM (inactive)	41.5 µM (inactive)	41.1 µM (inactive)	38.4 µM (inactive)	32.1 µM (inactive)	82.4 µM (inactive)	–	–	–
